Measured values: paper PMC2191300 (The Journal of Experimental Medicine, 1993)

Molecular target: I-Ak (Mus musculus, UniProt P01910+P06343)
Assay: Percent of I-Ak occupied by each eluted self-peptide
Conditions: I-Ak from thymus (cortical plus medullary epithelium) of C3H/HeJ mice; Table 1

Chain of I-Ak (P01910 whole entry, looked up): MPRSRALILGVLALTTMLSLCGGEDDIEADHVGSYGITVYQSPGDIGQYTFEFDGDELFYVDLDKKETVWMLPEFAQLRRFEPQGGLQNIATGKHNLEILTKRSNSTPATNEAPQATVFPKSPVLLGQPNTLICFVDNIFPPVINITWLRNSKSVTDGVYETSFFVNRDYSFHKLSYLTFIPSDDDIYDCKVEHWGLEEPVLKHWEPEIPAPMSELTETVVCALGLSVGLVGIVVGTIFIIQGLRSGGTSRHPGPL
Chain of I-Ak (P06343 whole entry, looked up): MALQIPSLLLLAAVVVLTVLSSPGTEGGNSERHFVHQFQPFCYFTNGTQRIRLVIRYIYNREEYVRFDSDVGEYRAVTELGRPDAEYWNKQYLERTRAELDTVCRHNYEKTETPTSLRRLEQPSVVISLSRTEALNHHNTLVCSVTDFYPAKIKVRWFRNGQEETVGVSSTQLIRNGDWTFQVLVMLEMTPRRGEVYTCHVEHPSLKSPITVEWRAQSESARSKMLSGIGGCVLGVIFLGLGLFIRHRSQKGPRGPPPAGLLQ

Percent of MHC occupied in Thymus [%] | Substance
0.3 | a vvKKGTD_FQLNQLE [Transferrin 100-]
0.2 | e yiLYNKGIMGEdSYPY [Cathepsin H 77-]
0.2 | k kGTD_FQLNQLEGKKG [Transferrin 103-]
< 0.1 | n serHFV_HQFQPFcyF [A~ 3-]
< 0.1 | r sYLD_AwVcEQLAT [Fce Receptor 11 298-]
0.2 | xPL_ALQFAELPVNKG
< 0.1 | xP_IDDGGIEA
< 0.1 | xQLGA_QNEMLxPV
